In brackets after ≈: the same amount, converted by molar mass.
Columns and labels:
Pyrenophora teres = Pyrenophora teres test (barley)/protective; conditions: protective, 0.025 % by weight in the spray liquor, 7 days after inoculation
Method: Solvent: 100 parts by weight of dimethylformamide
Emulsifier: 0.25 part by weight of alkylaryl polyglycol ether
After the spray coating has dried on, the plants are sprayed with a conidia suspension of Pyrenophora teres. The plants then remain in an incubation cabin at 20° C. and 100% relative atmospheric humidity for 48 hours.
The plants are placed in a greenhouse at a temperature of about 20° C. and a relative atmospheric humidity of about 80%.
(§2) Evaluation is carried out 7 days after the inoculation.

Drechslera graminea = Drechslera graminea test (barley)/seed treatment (syn. Helminthosporium gramineum); type: in vivo; conditions: seed treatment, about 3 weeks after sowing, undressed 29.7
Pyricularia oryzae = type: in vivo; conditions: rice, protective; active compound concentration 0.025 %; 4 days after inoculation
Penicillium glaucum = assay: Minimum inhibitory concentration (MIC) in agar, Penicillium glaucum; type: cell-based; conditions: 336 h, 28° C., two weeks
Method: (§1) Active compounds according to the invention are added in concentrations of 0.1 mg/l to 5,000 mg/l to an agar prepared from bierwort and peptone. After being kept at 28° C. and 60 to 70% relative atmospheric humidity for two weeks, the MIC is determined. The MIC is the lowest concentration of active compound at which no growth at all by the species of microbe used takes place, and is shown in the following Table I.

Aspergillus niger = assay: Minimum inhibitory concentration (MIC) in agar, Aspergillus niger; type: cell-based; conditions: 336 h, 28° C., two weeks
Method: as §1

Chaetomium globosum = assay: Minimum inhibitory concentration (MIC) in agar, Chaetomium globosum; type: cell-based; conditions: 336 h, 28° C., two weeks
Method: as §1

Coniophora puteana = assay: Minimum inhibitory concentration (MIC) in agar, Coniophora puteana; type: cell-based; conditions: 336 h, 28° C., two weeks
Method: as §1

Sclerophoma pityophila = assay: Minimum inhibitory concentration (MIC) in agar, Sclerophoma pityophila; type: cell-based; conditions: Sydowia polyspora, 336 h, 28° C., two weeks
Method: as §1

Lentinus tigrinus = assay: Minimum inhibitory concentration (MIC) in agar, Lentinus tigrinus; type: cell-based; conditions: 336 h, 28° C., two weeks
Method: as §1

Alternaria tenuis = assay: Minimum inhibitory concentration (MIC) in agar, Alternaria tenuis; type: cell-based; conditions: Alternaria alternata, 336 h, 28° C., two weeks
Method: as §1

Aureobasidium pullulans = assay: Minimum inhibitory concentration (MIC) in agar, Aureobasidium pullulans; type: cell-based; conditions: 336 h, 28° C., two weeks
Method: as §1

Polyporus versicolor = assay: Minimum inhibitory concentration (MIC) in agar, Polyporus versicolor; type: cell-based; conditions: Trametes versicolor, 336 h, 28° C., two weeks
Method: as §1

Plasmopara viticola = assay: Plasmopara test (vines)/protective; conditions: protective, 7 days after inoculation
Method: Solvent: 4.7 parts by weight of acetone
Emulsifier: 0.3 part by weight of alkylaryl polyglycol ether
After the spray coating has dried on, the plants are inoculated with an aqueous spore suspension of Plasmopara viticola and then remain in a humidity chamber at 20° to 22° C. and 100% relative atmospheric humidity for 1 day. The plants are then placed in a greenhouse at 22° C. and about 80% atmospheric humidity for 5 days. The plants are then moistened and placed in a humidity chamber for 1 day.
as §2

Question: `CCOc1ccc(N(SC(F)(Cl)Cl)C(=O)OC)cc1` was tested. Which “Disease infestation in % of the untreated control” value (“Disease infestation in %” below) (Pyrenophora teres) did it give?
Answer: Its value is 29.4%.

Question: How did the “Disease infestation in %” value (Pyrenophora teres) turn out when `COC(=O)N(SC(F)(Cl)Cl)c1cc(Cl)c(OC)c(Cl)c1` was run?
Answer: Its value is 25.0%.

Question: With `COc1c(Cl)cc(N(SC(F)(Cl)Cl)C(=O)OC(C)C)cc1Cl` as the compound, how does the “Disease infestation in %” value (Pyrenophora teres) read?
Answer: The value was 25.0%.

Question: `COC(=O)N(SC(F)(Cl)Cl)c1ccc(OC)c(OC)c1` was tested. Which “Disease infestation in %” value (Pyrenophora teres) did it give?
Answer: The value was 0.0%.

Question: With `COc1ccc(N(SC(F)(Cl)Cl)C(=O)OC(C)C)cc1OC` as the compound, how does the “Disease infestation in %” value (Pyrenophora teres) read?
Answer: Its value is 25.0%.

Question: `O=C(OCC(Cl)(Cl)Cl)N(SC(F)(Cl)Cl)c1ccc(Cl)cc1` was tested. Which “Disease infestation in %” value (Pyrenophora teres) did it give?
Answer: The value was 33.7%.

Question: How did the “Diseased plants in % of the total plants emerged” value (“Diseased plants in %” below) (Drechslera graminea; 500 mg/kg of seed) turn out when `COC(=O)N(SC(F)(Cl)Cl)c1ccccc1` was run?
Answer: Its value is 3.1%.

Question: For `COCCOC(=O)N(SC(F)(Cl)Cl)c1ccccc1`, which “Disease infestation in %” value (Pyricularia oryzae) is on record?
Answer: The value was 30%.

Question: How did the “Disease infestation in %” value (Pyricularia oryzae) turn out when `O=C(OCc1ccc(Cl)c(Cl)c1)N(SC(F)(Cl)Cl)c1ccccc1` was run?
Answer: The value was 10%.

Question: What does the source list for `COC(=O)N(SC(F)(Cl)Cl)c1ccc(Cl)cc1` [Example 1]?
Answer: MIC (Penicillium glaucum): < 20 µg/mL; MIC (Aspergillus niger): < 20 µg/mL; MIC (Chaetomium globosum): < 20 µg/mL

Question: Which MIC (Penicillium glaucum) does the source give for `COC(=O)N(SC(F)(Cl)Cl)c1cccc(Cl)c1` [Example 9] here?
Answer: Its MIC is under 20 µg/mL.

Question: What about the MIC (Aspergillus niger) of the same compound?
Answer: The MIC was under 20 µg/mL.

Question: And the MIC (Chaetomium globosum)?
Answer: The MIC was under 20 µg/mL.

Question: How did the MIC (Penicillium glaucum) turn out when `COC(=O)N(SC(F)(Cl)Cl)c1cccc(Cl)c1Cl` [Example 14] was run?
Answer: The MIC was under 20 µg/mL.

Question: And the MIC (Aspergillus niger)?
Answer: Its MIC is under 20 µg/mL.

Question: And the MIC (Chaetomium globosum)?
Answer: The MIC was under 20 µg/mL.

Question: With `COC(=O)N(SC(F)(Cl)Cl)c1ccc(Cl)cc1Cl` [Example 16] as the compound, how does the MIC (Penicillium glaucum) read?
Answer: Its MIC is under 20 µg/mL.

Question: And the MIC (Aspergillus niger)?
Answer: Its MIC is under 20 µg/mL.

Question: And the MIC (Chaetomium globosum)?
Answer: Its MIC is under 20 µg/mL.

Question: How did the MIC (Penicillium glaucum) turn out when `COC(=O)N(SC(F)(Cl)Cl)c1ccc(Cl)c(Cl)c1` [Example 18] was run?
Answer: Its MIC is under 20 µg/mL.

Question: And the MIC (Aspergillus niger)?
Answer: Its MIC is 35 µg/mL (≈ 99.1 µM).

Question: What about the MIC (Chaetomium globosum) of the same compound?
Answer: Its MIC is under 20 µg/mL.

Question: How did the MIC (Coniophora puteana) turn out when `CCOC(=O)N(SC(F)(Cl)Cl)c1cc(Cl)cc(Cl)c1` [Example 23] was run?
Answer: Its MIC is 1 µg/mL (≈ 2.72 µM).

Question: What about the MIC (Penicillium glaucum) of the same compound?
Answer: The MIC was 7.5 µg/mL (≈ 20.4 µM).

Question: What about the MIC (Aspergillus niger) of the same compound?
Answer: The MIC was 35 µg/mL (≈ 95.4 µM).

Question: What about the MIC (Sclerophoma pityophila) of the same compound?
Answer: Its MIC is 1.5 µg/mL (≈ 4.09 µM).

Question: And the MIC (Lentinus tigrinus)?
Answer: Its MIC is 1 µg/mL (≈ 2.72 µM).

Question: What about the MIC (Alternaria tenuis) of the same compound?
Answer: Its MIC is 5 µg/mL (≈ 13.6 µM).

Question: What about the MIC (Aureobasidium pullulans) of the same compound?
Answer: Its MIC is 3.5 µg/mL (≈ 9.54 µM).

Question: What about the MIC (Polyporus versicolor) of the same compound?
Answer: The MIC was 2 µg/mL (≈ 5.45 µM).

Question: What about the MIC (Chaetomium globosum) of the same compound?
Answer: The MIC was 10 µg/mL (≈ 27.2 µM).

Question: With `COC(=O)N(SC(F)(Cl)Cl)c1ccc(Cl)cc1C` [Example 29] as the compound, how does the MIC (Penicillium glaucum) read?
Answer: The MIC was under 20 µg/mL.

Question: And the MIC (Aspergillus niger)?
Answer: The MIC was under 20 µg/mL.

Question: And the MIC (Chaetomium globosum)?
Answer: Its MIC is under 20 µg/mL.

Question: With `COC(=O)N(SC(F)(Cl)Cl)c1ccc(C)c(Cl)c1` [Example 31] as the compound, how does the MIC (Penicillium glaucum) read?
Answer: The MIC was under 20 µg/mL.

Question: And the MIC (Aspergillus niger)?
Answer: The MIC was under 20 µg/mL.

Question: And the MIC (Chaetomium globosum)?
Answer: The MIC was under 20 µg/mL.

Question: Which MIC (Coniophora puteana) does the source give for `COC(=O)N(SC(Cl)(Cl)Cl)c1ccccc1` [Example 41] here?
Answer: The MIC was 0.1 µg/mL (≈ 0.333 µM).

Question: What about the MIC (Penicillium glaucum) of the same compound?
Answer: Its MIC is 20 µg/mL (≈ 66.5 µM).

Question: And the MIC (Aspergillus niger)?
Answer: The MIC was 5 µg/mL (≈ 16.6 µM).

Question: And the MIC (Sclerophoma pityophila)?
Answer: Its MIC is 1 µg/mL (≈ 3.33 µM).

Question: And the MIC (Lentinus tigrinus)?
Answer: The MIC was 0.5 µg/mL (≈ 1.66 µM).

Question: What about the MIC (Alternaria tenuis) of the same compound?
Answer: The MIC was 0.5 µg/mL (≈ 1.66 µM).

Question: And the MIC (Aureobasidium pullulans)?
Answer: The MIC was 1.5 µg/mL (≈ 4.99 µM).

Question: And the MIC (Polyporus versicolor)?
Answer: The MIC was 1.5 µg/mL (≈ 4.99 µM).

Question: And the MIC (Chaetomium globosum)?
Answer: The MIC was 2 µg/mL (≈ 6.65 µM).

Question: `CN(C)S(=O)(=O)N(SC(F)(Cl)Cl)c1ccccc1` [drawing 10, reference compound] was tested. Which “Disease infestation in %” value (Pyrenophora teres) did it give?
Answer: The value was 72.5%.

Question: Which “Disease infestation in %” value (Pyrenophora teres) does the source give for `COC(=O)N(SC(F)(Cl)Cl)c1ccc(C)c(Cl)c1` [drawing 11] here?
Answer: Its value is 39.4%.

Question: How did the “Disease infestation in %” value (Pyrenophora teres) turn out when `COC(=O)N(SC(F)(Cl)Cl)c1ccc(Cl)cc1Cl` [drawing 12] was run?
Answer: The value was 37.7%.

Question: `COC(=O)N(SC(F)(Cl)Cl)c1ccc(Cl)cc1C` [drawing 13] was tested. Which “Disease infestation in %” value (Pyrenophora teres) did it give?
Answer: The value was 31.3%.

Question: How did the “Disease infestation in %” value (Pyrenophora teres) turn out when `COC(=O)N(SC(F)(Cl)Cl)c1cccc(C(F)(F)F)c1` [drawing 14] was run?
Answer: The value was 30.3%.

Question: Which “Disease infestation in %” value (Pyrenophora teres) does the source give for `COC(=O)N(SC(F)(Cl)Cl)c1cc(Cl)cc(Cl)c1` [drawing 15] here?
Answer: The value was 30.3%.

Question: Which “Disease infestation in %” value (Pyrenophora teres) does the source give for `COC(=O)N(SC(F)(Cl)Cl)c1cccc(Cl)c1` [drawing 16] here?
Answer: Its value is 20.3%.

Question: For `COC(=O)N(SC(F)(Cl)Cl)c1ccc(C(F)(F)F)c(Cl)c1` [drawing 17], which “Disease infestation in %” value (Pyrenophora teres) is on record?
Answer: Its value is 20.3%.

Question: For `COC(=O)N(SC(Cl)(Cl)Cl)c1ccccc1` [drawing 18], which “Disease infestation in %” value (Pyrenophora teres) is on record?
Answer: Its value is 20.3%.

Question: For `COC(=O)N(SC(F)(Cl)Cl)c1ccc(Cl)c(Cl)c1` [drawing 25], which “Disease infestation in %” value (Pyrenophora teres) is on record?
Answer: The value was 14.5%.

Question: For `COC(=O)N(SC(F)(Cl)Cl)c1ccc(Cl)cc1` [drawing 26], which “Disease infestation in %” value (Pyrenophora teres) is on record?
Answer: The value was 37.7%.

Question: With `CN(C)S(=O)(=O)N(SC(F)(Cl)Cl)c1ccccc1` [drawing 27, reference compound] as the compound, how does the “Diseased plants in %” value (Drechslera graminea; 600 mg/kg of seed) read?
Answer: Its value is 23.9%.

Question: For `COC(=O)N(SC(F)(Cl)Cl)c1ccc(C)c(Cl)c1` [drawing 28], which “Diseased plants in %” value (Drechslera graminea; 500 mg/kg of seed) is on record?
Answer: The value was 3.2%.

Question: `COC(=O)N(SC(F)(Cl)Cl)c1ccc(Cl)cc1C` [drawing 29] was tested. Which “Diseased plants in %” value (Drechslera graminea; 500 mg/kg of seed) did it give?
Answer: The value was 0.0%.

Question: Which “Diseased plants in %” value (Drechslera graminea; 500 mg/kg of seed) does the source give for `COC(=O)N(SC(F)(Cl)Cl)c1cccc(C(F)(F)F)c1` [drawing 30] here?
Answer: Its value is 0.0%.

Question: How did the “Diseased plants in %” value (Drechslera graminea; 500 mg/kg of seed) turn out when `COC(=O)N(SC(F)(Cl)Cl)c1cc(Cl)cc(Cl)c1` [drawing 31] was run?
Answer: The value was 0.0%.

Question: For `COC(=O)N(SC(F)(Cl)Cl)c1ccc(C(F)(F)F)c(Cl)c1` [drawing 32], which “Diseased plants in %” value (Drechslera graminea; 500 mg/kg of seed) is on record?
Answer: Its value is 1.0%.

Question: Which “Disease infestation in %” value (Pyricularia oryzae) does the source give for `O=C(OCc1ccccc1)N(SC(F)(Cl)Cl)c1ccccc1` [drawing 36] here?
Answer: Its value is 0%.

Question: How did the Infestation in % (Plasmopara viticola; active compound concentration 1 ppm) turn out when `O=C(OCc1ccccc1)N(SC(F)(Cl)Cl)c1ccccc1` [drawing 39] was run?
Answer: Its Infestation in % is 47%.

Question: And the Infestation in % (Plasmopara viticola; active compound concentration 2 ppm)?
Answer: Its Infestation in % is 24%.

Source: US4798905A, “Sulphenylated carbamic acid esters, a process for their preparation and their use” (Bayer Aktiengesellschaft, priority 1984, dated 1989)
